Measurements as given in ChEMBL document CHEMBL3627713, “Triazole linked mono carbonyl curcumin-isatin bifunctional hybrids as novel anti tubulin agents: Design, synthesis, biological evaluation and molecular modeling studies” (Bioorg Med Chem, 2015).

Legend:
HCT-116 [1] = assay: Cytotoxicity against human HCT116 cells assessed as growth inhibition at 50 uM after 48 hrs by sulforhodamine B assay relative to control; assay type: functional; details: HCT-116, 48 h, read-out: GI
COLO 205 [2] = assay: Cytotoxicity against human COLO205 cells assessed as growth inhibition at 50 uM after 48 hrs by sulforhodamine B assay relative to control; assay type: functional; details: COLO 205, 48 h, read-out: GI
THP-1 [3] = assay: Cytotoxicity against human THP1 cells assessed as growth inhibition at 50 uM after 48 hrs by sulforhodamine B assay relative to control; assay type: functional; details: THP-1, 48 h, read-out: GI
PC-3 [4] = assay: Cytotoxicity against human PC3 cells assessed as growth inhibition at 50 uM after 48 hrs by sulforhodamine B assay relative to control; assay type: functional; details: PC-3, 48 h, read-out: GI
HeLa = assay: Cytotoxicity against human HeLa cells assessed as growth inhibition at 50 uM after 48 hrs by sulforhodamine B assay relative to control; assay type: functional; details: read-out: GI
[5] = Cytotoxicity against human MIAPaCa2 cells assessed as growth inhibition at 50 uM after 48 hrs by sulforhodamine B assay relative to control; assay type: functional; details: MIA PaCa-2, 48 h, read-out: GI
A549 = assay: Cytotoxicity against human A549 cells assessed as growth inhibition at 50 uM after 48 hrs by sulforhodamine B assay relative to control; assay type: functional; details: A549, 48 h, read-out: GI
CAKI-1 = assay: Cytotoxicity against human Caki1 cells assessed as growth inhibition at 50 uM after 48 hrs by sulforhodamine B assay relative to control; assay type: functional; details: CAKI-1, 48 h, read-out: GI
THP-1 [6] = assay: Cytotoxicity against human THP1 cells assessed as growth inhibition after 48 hrs by sulforhodamine B assay; assay type: functional, cell-based; details: THP-1, 48 h
HCT-116 [7] = assay: Cytotoxicity against human HCT116 cells assessed as growth inhibition after 48 hrs by sulforhodamine B assay; assay type: functional, cell-based; details: HCT-116, 48 h
PC-3 [8] = assay: Cytotoxicity against human PC3 cells assessed as growth inhibition after 48 hrs by sulforhodamine B assay; assay type: functional, cell-based; details: PC-3, 48 h
COLO 205 [9] = assay: Cytotoxicity against human COLO205 cells assessed as growth inhibition after 48 hrs by sulforhodamine B assay; assay type: functional, cell-based; details: COLO 205, 48 h

SMILES | inhibition of growth at 50 µM (HCT-116 [1]) [%] | inhibition of growth at 50 µM (COLO 205 [2]) [%] | inhibition of growth at 50 µM (THP-1 [3]) [%] | inhibition of growth at 50 µM (PC-3 [4]) [%] | inhibition of growth at 50 µM (HeLa) [%] | inhibition of growth at 50 µM [5] [%] | inhibition of growth at 50 µM (A549) [%] | inhibition of growth at 50 µM (CAKI-1) [%] | IC50 (THP-1 [6]) [µM] | IC50 (HCT-116 [7]) [µM] | IC50 (PC-3 [8]) [µM] | IC50 (COLO 205 [9]) [µM]
COc1cc(/C=C/C(=O)/C=C/c2ccc(Br)cc2)ccc1OCc1cn(CCN2C(=O)C(=O)c3cc(Cl)ccc32)nn1 | 24 | 20 | 25 | 23 |  |  |  |  |  |  |  | 
COc1cccc(/C=C/C(=O)/C=C/c2ccc(OCc3cn(CCN4C(=O)C(=O)c5cc(Br)ccc54)nn3)c(OC)c2)c1 | 57 | 56 | 54 | 51 |  |  |  |  |  |  |  | 
COc1ccc(/C=C/C(=O)/C=C/c2ccc(OCc3cn(CCN4C(=O)C(=O)c5cc(Br)ccc54)nn3)c(OC)c2)cc1 | 65 | 59 | 60 | 57 | 10 | 10 |  |  |  |  |  | 
COc1cc(/C=C/C(=O)/C=C/c2ccccc2)ccc1OCc1cn(CCN2C(=O)C(=O)c3cc(Cl)ccc32)nn1 | 68 | 63 | 65 | 58 | 14 | 13 | 21 | 13 |  |  |  | 
COc1cc(/C=C/C(=O)/C=C/c2ccc([N+](=O)[O-])cc2)ccc1OCc1cn(CCN2C(=O)C(=O)c3ccccc32)nn1 | 39 | 35 | 35 | 33 |  |  |  |  |  |  |  | 
COc1cc(/C=C/C(=O)/C=C/c2ccco2)ccc1OCc1cn(CCN2C(=O)C(=O)c3cc(Cl)ccc32)nn1 | 47 | 39 | 41 | 40 |  |  |  |  |  |  |  | 
COc1cc(/C=C/C(=O)/C=C/c2cccs2)ccc1OCc1cn(CCN2C(=O)C(=O)c3cc(Cl)ccc32)nn1 | 44 | 35 | 38 | 37 |  |  |  |  |  |  |  | 
COc1cc(/C=C/C(=O)/C=C/c2ccc(Cl)cc2)ccc1OCc1cn(CCN2C(=O)C(=O)c3cc(Br)ccc32)nn1 | 29 | 24 | 25 | 23 |  |  |  |  |  |  |  | 
COc1cc(/C=C/C(=O)/C=C/c2cccc(Br)c2)ccc1OCc1cn(CCN2C(=O)C(=O)c3cc(Br)ccc32)nn1 | 13 | 11 | 12 | 13 |  |  |  |  |  |  |  | 
COc1cc(/C=C/C(=O)/C=C/c2ccc(Cl)cc2)ccc1OCc1cn(CCN2C(=O)C(=O)c3cc(Cl)ccc32)nn1 | 36 | 29 | 30 | 25 |  |  |  |  |  |  |  | 
COc1cc(/C=C/C(=O)/C=C/c2ccc([N+](=O)[O-])cc2)ccc1OCc1cn(CCN2C(=O)C(=O)c3cc(Br)ccc32)nn1 | 10 | 10 |  | 10 |  |  |  |  |  |  |  | 
COc1cc(/C=C/C(=O)/C=C/c2cccs2)ccc1OCc1cn(CCN2C(=O)C(=O)c3cc(Br)ccc32)nn1 | 34 | 30 | 31 | 28 |  |  |  |  |  |  |  | 
COc1cc(/C=C/C(=O)/C=C/c2cccc(Br)c2)ccc1OCc1cn(CCN2C(=O)C(=O)c3cc(Cl)ccc32)nn1 | 19 | 10 | 12 | 14 |  |  |  |  |  |  |  | 
COc1cc(/C=C/C(=O)/C=C/c2ccc(Br)cc2)ccc1OCc1cn(CCN2C(=O)C(=O)c3ccccc32)nn1 | 49 | 47 | 48 | 44 |  |  |  |  |  |  |  | 
COc1cc(/C=C/C(=O)/C=C/c2ccc(Br)cc2)ccc1OCc1cn(CCN2C(=O)C(=O)c3cc(Br)ccc32)nn1 | 20 | 19 | 21 | 17 |  |  |  |  |  |  |  | 
COc1cc(/C=C/C(=O)/C=C/c2cccc([N+](=O)[O-])c2)ccc1OCc1cn(CCN2C(=O)C(=O)c3ccccc32)nn1 | 25 | 22 | 24 | 20 |  |  |  |  |  |  |  | 
COc1cc(/C=C/C(=O)/C=C/c2cccc3ccccc23)ccc1OCc1cn(CCN2C(=O)C(=O)c3cc(Br)ccc32)nn1 | 44 | 40 | 40 | 37 |  |  |  |  |  |  |  | 
COc1cc(/C=C/C(=O)/C=C/c2ccc(Cl)cc2)ccc1OCc1cn(CCN2C(=O)C(=O)c3ccccc32)nn1 | 51 | 50 | 49 | 45 |  |  |  |  |  |  |  | 
COc1cc(/C=C/C(=O)/C=C/c2ccccc2)ccc1OCc1cn(CCN2C(=O)C(=O)c3cc(Br)ccc32)nn1 | 56 | 51 | 54 | 50 | 14 | 16 | 11 | 12 |  |  |  | 
COc1cccc(/C=C/C(=O)/C=C/c2ccc(OCc3cn(CCN4C(=O)C(=O)c5cc(Cl)ccc54)nn3)c(OC)c2)c1 | 58 | 52 | 55 | 51 | 10 |  | 13 |  |  |  |  | 
COc1ccccc1/C=C/C(=O)/C=C/c1ccc(OCc2cn(CCN3C(=O)C(=O)c4cc(Cl)ccc43)nn2)c(OC)c1 | 50 | 47 | 43 | 42 |  |  | 11 |  |  |  |  | 
COc1cc(/C=C/C(=O)/C=C/c2ccc([N+](=O)[O-])cc2)ccc1OCc1cn(CCN2C(=O)C(=O)c3cc(Cl)ccc32)nn1 | 11 |  |  | 10 |  |  |  |  |  |  |  | 
COc1cc(/C=C/C(=O)/C=C/c2ccco2)ccc1OCc1cn(CCN2C(=O)C(=O)c3cc(Br)ccc32)nn1 | 39 | 33 | 37 | 31 |  |  |  |  |  |  |  | 
COc1cc(/C=C/C(=O)/C=C/c2cccc(Br)c2)ccc1OCc1cn(CCN2C(=O)C(=O)c3ccccc32)nn1 | 42 | 36 | 40 | 35 |  |  |  |  |  |  |  | 
COc1cc(/C=C/C(=O)/C=C/c2ccco2)ccc1OCc1cn(CCN2C(=O)C(=O)c3ccccc32)nn1 | 78 | 68 | 72 | 65 |  | 10 |  | 12 | 6.56 | 4.61 | 8.4 | 7.53
COc1cc(/C=C/C(=O)/C=C/c2cccs2)ccc1OCc1cn(CCN2C(=O)C(=O)c3ccccc32)nn1 | 76 | 66 | 71 | 63 |  |  |  | 10 | 6.83 | 5.09 | 8.51 | 7.72
COc1ccccc1/C=C/C(=O)/C=C/c1ccc(OCc2cn(CCN3C(=O)C(=O)c4cc(Br)ccc43)nn2)c(OC)c1 | 50 | 47 | 43 | 42 |  |  |  |  |  |  |  | 
COc1ccc(/C=C/C(=O)/C=C/c2ccc(OCc3cn(CCN4C(=O)C(=O)c5cc(Br)ccc54)nn3)c(OC)c2)cc1OC | 69 | 63 | 65 | 61 | 12 | 12 | 10 | 10 |  |  |  | 
COc1cc(/C=C/C(=O)/C=C/c2cccc3ccccc23)ccc1OCc1cn(CCN2C(=O)C(=O)c3cc(Cl)ccc32)nn1 | 78 | 74 | 76 | 71 |  |  |  |  | 11.1 | 9.34 | 14.1 | 13.6
COc1ccc(/C=C/C(=O)/C=C/c2ccc(OCc3cn(CCN4C(=O)C(=O)c5cc(Cl)ccc54)nn3)c(OC)c2)cc1 | 66 | 63 | 64 | 60 | 12 | 10 | 15 |  | 9.78 | 7.81 | 12.5 | 11
